Values quoted from earlier work as cited in patent US20090143313A1 (priority 2004, published 2009).

What was measured:
[1] = system: 5-FU-immune-suppressed animals; conditions: in vivo
[2] = system: immunization with sheep red blood cells; conditions: in vivo
tuberculosis = conditions: human, in vivo

N[C@H](CCC(=O)N[C@@H](Cc1c[nH]c2ccccc12)C(=O)O)C(=O)O [SCV-07, γ-D-glutamyl-L-tryptophan]
Expression of Thy-1.2 on bone marrow cells (bone marrow cells): stimulates | Immunostimulatory effect [1]: strong immunostimulatory effect | Immunostimulatory effect [2]: strong immunostimulatory effect | Cavity healing and symptoms of tuberculosis (tuberculosis): positive effect | Incidence of mycobacteria-negative sputum cultures (tuberculosis): increased | Con-A-induced interleukin-2 (IL-2) production and IL-2 receptor expression by spleen lymphocytes (spleen lymphocytes): increases
